Reference: patent US10966979B2 (Sandoz AG, priority 2017, dated 2021)

Key:
[1] = Accelerated stress test at 40° C./75% RH (physical stability by powder X-ray diffraction and visual control of consistency); assay type: physicochemical
Description: Powder X-ray diffraction was performed with a PANalytical X'Pert PRO diffractometer equipped with a theta/theta coupled goniometer in transmission geometry, Cu-Kalpha1,2 radiation (wavelength 0.15419 nm) with a focusing mirror and a solid state PIXcel detector. Diffractograms were recorded at a tube voltage of 45 kV and a tube current of 40 mA, applying a stepsize of 0.013° 2-Theta with 40 s per step (255 channels) in the angular range of 2° to 40° 2-Theta at ambient conditions.
Example 2: Accelerated Stress Test at 40° C./75% RH With Solid Dispersions Comprising Amorphous Elagolix Sodium and at Least One Silicon-Based Inorganic Compound in a 1:1 Weight Ratio vs. Neat Elagolix Sodium
The physical stability against moisture and temperature stress has been tested for different solid dispersions comprising amorphous elagolix sodium and at least one silicon-based inorganic compound and for neat amorphous elagolix. For this purpose, the solid dispersions were stored open at accelerated stress conditions of 40° C. and 75% RH for 1, 3 and 6 weeks respectively. The physical stability has been investigated by means of powder X-ray diffraction and the consistency of the samples was visually controlled.

[2] = Behaviour of elagolix sodium upon moisture contact (hygroscopicity, deliquescence); assay type: physicochemical; conditions: no further conditions given
From the text: Said properties require special care and precautionary measures such as a controlled atmosphere during pharmaceutical processing, which renders manufacturing cumbersome and expensive. […] Such formulations may negatively influence patients' compliance, in particular for elderly people having troubles swallowing.
As used herein the term “deliquescent” means the property of a solid form of a compound to readily absorb moisture form the surrounding atmosphere until it deliquesces and forms a solution upon storage for 14 days at 40° C., atmospheric pressure and 75% relative humidity.

Which “consistency / deliquescence during the stress test” value ([1]; accelerated stress conditions of 40° C. and 75% RH, up to 6 weeks) does the source give for `COc1cccc(-c2c(C)n(Cc3c(F)cccc3C(F)(F)F)c(=O)n(C[C@H](NCCCC(=O)O)c3ccccc3)c2=O)c1F` [elagolix Na, 4-[[(1R)-2-[5-(2-fluoro-3-methoxyphenyl)-3-[[2-fluoro-6-(trifluoromethyl)phenyl]methyl]-3,6-dihydro-4-methyl-2,6-dioxo-1(2H)-pyrimidinyl]-1-phenylethyl]amino]butanoic acid] here?
The value was “deliquesced fairly quickly”.

And the Initial sample ([1]; solid state and consistency before storage, PXRD and visual control)?
Its Initial sample is “amorphous solid”.

And the “1 week at 40° C./75% RH” value ([1]; stored open, 1 week, 40° C., 75% RH, PXRD and visual control)?
The value was “deliquescence”.

And the “hygroscopicity / deliquescence upon moisture contact” value ([2]; listed as elagolix sodium)?
The value was “highly hygroscopic”.

What about the “hygroscopicity / deliquescence upon moisture contact” value ([2]; listed as neat amorphous elagolix sodium) of the same compound?
The value was “deliquesces fairly quickly”.
